Source: publication PMC9238401, “Peptide Conjugates Derived from flg15, Pep13, and PIP1 That Are Active against Plant-Pathogenic Bacteria and Trigger Plant Defense Responses” (Applied and Environmental Microbiology, 2022)
Marks after values point to notes of the source that are not given here. Non-standard residues stand in square brackets, D forms with d. Residues, ends and D or L forms follow the SMILES beside them. *: point of attachment. Butyryl = CCCC(=O)*

How the values were obtained:
[1] = HPLC retention time as indicator of relative hydrophobicity; format: physicochemical; conditions: chromatographic, Kromasil 100 C18 (4.6 mm × 40 mm, 3 μm), linear gradient 2 to 100% B over 12 min, 1 mL/min; A 0.1% aqueous TFA, B 0.1% TFA in CH3CN; used as indicator of relative hydrophobicity
Method in brief: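 Reversed-phase HPLC on Kromasil 100 C18 (4.6 × 40 mm, 3 μm), 0.1% TFA in water/acetonitrile, linear 2–100% B at 1 mL/min over 7 min (method A, UV 220 nm) or 12 min (method B). Retention time serves as relative hydrophobicity.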

[2] = tested on: tomato plants cv. Rio Grande, defense-related genes; experiment: Induction of defense gene expression in tomato plants (RT-qPCR); format: in vivo; conditions: peptide sprayed at 125 μM, leaves 24 h after application, ΔΔCT vs actin and nontreated control; for PR1 expression, fold induction: above 2 = overexpression
Description: The capacity to induce the expression of genes related to defense response in tomato plants was evaluated for the peptide conjugates flg15-BP387, flg15-BP475, and PIP1-BP475 and the monomers flg15 and PIP1 (Table 2).
Seeds of tomato cv. Rio Grande plants were sown in hydroponic seed plugs (rockwool) and germinated and grown in an environmentally controlled greenhouse at 25 ± 2°C (day) and 18 ± 2°C (night), with a minimum relative humidity of 60% and with a photoperiod of 16 h light and 8 h dark. Then, 2-week-old seedlings (two cotyledons) were transplanted into rockwool plugs (7.5 × 7.5 × 6.5 cm; Gordan Iberica, Spain). Tomato plants were maintained until use under the same environmental conditions.
The 2-week-old tomato plants cv. Rio Grande were sprayed with aqueous solutions of the peptides flg15-BP387, flg15-BP475, PIP1-BP475, flg15, and PIP1 at 125 μM until the runoff point. […] Water-sprayed plants were used as nontreated controls (NTC). The experimental design consisted of three replicates of three plants per treatment. Leaf samples were collected 24 h after product application and processed to extract RNA for reverse transcriptase quantitative PCR (RT-qPCR) assays. Plant material was roughly ground in liquid nitrogen and was transferred into tubes with two glass beads. Afterward, the frozen samples were finely ground using the TissueLyser II system (Qiagen, Hilden, Germany) at a frequency of 30 Hz for 1 min. Total RNA was extracted from leaves (100 mg) using PureLink plant RNA reagent (Invitrogen, Life Technologies) according to the manufacturer’s manual. The RNA was solubilized in RNase-free water (Ambion, Thermo Fisher Scientific, USA) and was routinely subjected to DNase treatment (Ambion Turbo DNA-free; Invitrogen Life Technologies, Carlsbad, CA, USA) to remove any contaminant DNA. In each step, the RNA was quantified using a NanoDrop ND-1000 spectrophotometer (Nanodrop Technologies, Wilmington, DE, USA). First-strand cDNA was generated from leaf RNA using reverse transcriptase (high-capacity cDNA reverse transcription kit; Applied Biosystems, Foster City, CA, USA) according to the manufacturer’s manual.
To test gene defense induction in the treated tomato plants, a quantitative PCR (qPCR) assay was performed. qPCR was carried out in a fluorometric thermal cycler (7500 Fast real-time PCR system; Applied Biosystems, USA) by using a Mix SYBR green PCR master mix (Applied Biosystems, Foster City, CA, USA) as previously described ([49]). Melting curve analysis was performed after each amplification to verify amplification specificity. A constitutive gene (actin) was used as a reference control ([52]), and the following genes implicated in plant defense response were analyzed using the previously described primers: pathogenesis-related protein-1 (PR1) and chitinase A (PR3) ([81]), subtilisin-like protease P69G (PR7), peroxidase 1 (PR9), WRKY3 transcription factor (WRKY3), hairpin-induced protein-like (Harp), blue-copper-binding protein gene (BCB) and ethylene responsive transcription factor (ERF) ([71]), and basic β-1,3-endoglucanase (GluB) ([52]). The primer concentration was 100 nM for all the genes except for the actin gene, for which the concentration was 300 nM. A calibration curve was prepared by cloning the corresponding target sequence in the pSpark cloning vector (Canvax, Córdoba, Spain), which was used to transform Escherichia coli DH5α. Plasmids were purified (Qiagen Iberia, S.L., Madrid, Spain), plasmid copies were quantified, and decimal dilutions were prepared.

Row | Compound | tR (min), HPLC retention time (method B) [1] [min] | BCB expression, fold induction [2] | ERF expression, fold induction [2] | GluB expression, fold induction [2] | Harp expression, fold induction [2] | PR3 expression, fold induction [2] | PR7 expression, fold induction [2] | PR9 expression, fold induction [2] | WRKY3 expression, fold induction [2] [fold] | PR1 expression, fold induction [2]
1 | CCCC(=O)NCCCC[C@H](NC(=O)[C@H](CCCCN)NC(=O)[C@H](CC(C)C)NC(=O)[C@@H](NC(=O)[C@H](CCCCN)NC(=O)[C@H](CCCCN)NC(=O)[C@@H](Cc1ccccc1)NC(=O)[C@H](CC(C)C)NC(=O)[C@H](CCCCN)NC(=O)[C@H](CCCCN)NC(=O)[C@H](Cc1c[nH]cn1)NC(=O)[C@@H](NC(=O)[C@H](Cc1c[nH]cn1)NC(=O)[C@@H](NC(=O)CNC(=O)[C@H](Cc1ccc(O)cc1)NC(C)=O)[C@@H](C)CC)[C@@H](C)O)[C@@H](C)CC)C(=O)N[C@@H](CC(C)C)C(N)=O [PIP1-BP475] (Ac-YGIHTHKKL[dF]KKILKK(Butyryl)L-NH2) | 5.55 | 2.07 ± 0.11^d fold | 0.81 ± 0.30 fold | 0.80 ± 0.07 fold | 2.25 ± 0.12^d fold | 7.36 ± 1.05^d fold | 1.29 ± 0.19^d fold | 1.99 ± 0.11^d fold | 1.46 ± 0.11 | 0.64 ± 0.36 fold
2 | CCCC(=O)NCCCC[C@H](NC(=O)[C@H](CCCCN)NC(=O)[C@H](CC(C)C)NC(=O)[C@@H](NC(=O)[C@H](CCCCN)NC(=O)[C@H](CCCCN)NC(=O)[C@@H](Cc1ccccc1)NC(=O)[C@H](CC(C)C)NC(=O)[C@H](CCCCN)NC(=O)[C@H](CCCCN)NC(=O)[C@H](C)NC(=O)[C@@H](NC(=O)[C@H](CCC(N)=O)NC(=O)[C@H](CC(C)C)NC(=O)CNC(=O)[C@H](C)NC(=O)[C@H](C)NC(=O)[C@H](CC(=O)O)NC(=O)[C@H](CC(=O)O)NC(=O)[C@H](CCCCN)NC(=O)[C@H](C)NC(=O)[C@H](CO)NC(=O)[C@H](CC(N)=O)NC(=O)[C@@H](NC(=O)[C@H](CCCNC(=N)N)NC(C)=O)[C@@H](C)CC)[C@@H](C)CC)[C@@H](C)CC)C(=O)N[C@@H](CC(C)C)C(N)=O [flg15-BP475] (Ac-RINSAKDDAAGLQIAKKL[dF]KKILKK(Butyryl)L-NH2) | 6.79 | 5.84 ± 1.38^d fold | 0.67 ± 0.15^d fold | 4.31 ± 0.82^d fold | 3.68 ± 0.91^d fold | 10.96 ± 1.85^d fold | 5.82 ± 0.78^d fold | 3.83 ± 0.25^d fold | 1.16 ± 0.26 | 2.02 ± 0.07^d fold
3 | RINSAKDDAAGLQIA-OH [flg15, plant defense elicitor peptide, 15 amino acids of the N-terminal conserved domain of bacterial flagellin; monomer] |  | 8.14 ± 2.48^d fold | 1.09 ± 0.44 fold | 6.05 ± 2.40^d fold | 4.28 ± 1.49^d fold | 17.68 ± 4.18^d fold | 9.26 ± 2.06^d fold | 6.24 ± 2.25^d fold | 1.41 ± 0.84 | 8.32 ± 3.35^d fold
4 | YGIHTH-NH2 [PIP1, plant defense elicitor peptide identified through combinatorial chemistry; monomer] |  | 1.99 ± 0.40^d fold | 0.58 ± 0.11^d fold | 0.96 ± 0.32 fold | 1.97 ± 0.45^d fold | 3.59 ± 1.35^d fold | 1.13 ± 0.26 fold | 1.23 ± 0.18 fold | 0.94 ± 0.35 | 1.00 ± 0.39 fold
